“Also recorded” adds a separate entry of the source.
Experiments:
[1] = tested on: hepatic SMAD1/5/8 phosphorylation; test: Iron-dextran challenge: hepatic SMAD1/5/8 phosphorylation in mice; format: in vivo, C57BL/6 mice; conditions: 10 mg/kg co-injected with iron-dextran, intravenous, 1 hour
[2] = tested on: Activin A-mediated activation of SMAD2; test: Activin A-mediated SMAD2 phosphorylation in PASMCs; format: cell-based, murine; conditions: Activin A 80 ng/ml
Protocol: Wild-type and BMPR-II-deficient PASMC were isolated as previously described (Yu et al., J. Biol. Chem. 280:24443-24450, 2005), and cultured in RPMI medium (Invitrogen) supplemented with 10% FBS. C2C12 cells (American Type Culture Collection, Manassas, Va.) were cultured in DMEM supplemented with glutamine and 10% FBS. HepG2 cells and Hep3B cells (ATCC) were cultured in Minimal Essential Alpha Medium with L-glutamine (α-MEM, Invitrogen) containing 10% FBS. For studies of SMAD activation in vitro, PASMC were incubated in 0.5% FCS RPMI for 24 hours, followed by preincubation with drug compounds, noggin, or vehicle for 30 minutes, followed the addition of recombinant BMPs 2, 4, 6, or 7, or TGF-β1 or Activin A (R&D Systems, Minneapolis, Minn.) for 30 minutes.
(§1) Cell extracts or tissues were mechanically homogenized in SDS-lysis buffer (62.5 mM Tris-HCl (pH 6.8), 2% SDS, 10% glycerol, 50 mM DTT, 0.01% bromophenol blue); separated by SDS-PAGE; immunoblotted with anti-phospho-SMAD1/5/8, anti-phospho-SMAD2 (Cell Signaling, Beverly, Mass.), or anti-α-tubulin (Upstate/Millipore, Billerica, Mass.) Abs; and visualized using ECL Plus (GE Healthcare, Piscataway, N.J.). Levels of immunoreactive proteins were quantitated by ImageQuant software on a Storm phosphorimager (GE Healthcare).

caALK7 = test: Constitutively-active ALK7 PAI-1 promoter reporter (CAGA-Luc); format: cell-based; conditions: PASMCs, up to 20 μM
Protocol: Murine PASMCs grown to 50% confluence in 6-well plates were transiently transfected with 0.3 μg Id1 promoter luciferase reporter construct (BRE-Luc, Dr. Peter ten Dijke, Leiden University Medical Center, Netherlands (Korchynskyi et al., J. Biol. Chem. 277:4883-4891, 2002)) in combination with 0.6 μg plasmids expressing constitutively-active forms of BMP type I receptors (caALK2, caALK3, or caALK6, kindly provided by Dr. Kohei Miyazono, University of Tokyo, Japan (Fujii et al., Mol. Biol. Cell 10:3801-3813, 1999)), using Fugene6 (Roche). To assess Activin and […] type I receptor function, PASMCs were transiently transfected with 0.3 μg PAI-1 promoter luciferase reporter construct (CAGA-Luc, Dr. Peter ten Dijke (Dennler et al., Embo J. 17:3091-3100, 1998)) in combination with 0.6 μg plasmids expressing constitutively active forms of type I receptors (caALK4, caALK5, and caALK7, also provided by Dr. Kohei Miyazono (Okadome et al., J. Biol. Chem. 271:21687-21690, 1996; Shimizu et al., Genes Cells 3:125-134, 1998)). For both reporters, 0.2 μg pRL-TK Renilla luciferase (Promega) was used to control for transfection efficiency. […] Cell extracts were harvested, and relative promoter activity quantitated by the ratio of firefly to Renilla luciferase activity using the dual luciferase assay kit (Promega). […] Hepcidin promoter activity was measured by luciferase assay as above.

[3] = mice, 10 to 30 mg/kg each day (Kim et al. 2004); cited from earlier work
caALK3 = target: T1, caALK3 (Homo sapiens, UniProt P36894, Q233D); test: Constitutively-active ALK3 transfection: phospho-SMAD1/5/8 immunoblot and Id1 promoter (BRE-Luc); format: cell-based; conditions: BMPR-II-deficient PASMCs
T1 construct: expressed in transfected cells; host or cells: murine PASMCs (BMPR-II-deficient), transient transfection
T1 sequence (P36894 24-532 Q233D): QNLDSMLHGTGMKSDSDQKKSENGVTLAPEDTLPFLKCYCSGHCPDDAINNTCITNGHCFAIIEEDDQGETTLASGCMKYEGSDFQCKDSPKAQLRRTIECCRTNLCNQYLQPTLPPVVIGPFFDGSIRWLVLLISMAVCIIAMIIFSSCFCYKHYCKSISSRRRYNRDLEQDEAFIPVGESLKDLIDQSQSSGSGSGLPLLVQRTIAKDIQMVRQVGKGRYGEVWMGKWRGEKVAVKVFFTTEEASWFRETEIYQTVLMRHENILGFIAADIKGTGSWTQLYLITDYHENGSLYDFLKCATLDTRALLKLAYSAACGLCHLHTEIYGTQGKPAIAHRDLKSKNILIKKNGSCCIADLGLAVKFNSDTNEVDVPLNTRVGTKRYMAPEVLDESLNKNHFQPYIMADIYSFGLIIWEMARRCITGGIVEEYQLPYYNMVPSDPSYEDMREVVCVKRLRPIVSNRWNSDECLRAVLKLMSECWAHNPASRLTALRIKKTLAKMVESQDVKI
Protocol: as §1
Murine PASMCs grown to 50% confluence in 6-well plates were transiently transfected with 0.3 μg Id1 promoter luciferase reporter construct (BRE-Luc, Dr. Peter ten Dijke, Leiden University Medical Center, Netherlands (Korchynskyi et al., J. Biol. Chem. 277:4883-4891, 2002)) in combination with 0.6 μg plasmids expressing constitutively-active forms of BMP type I receptors (caALK2, caALK3, or caALK6, kindly provided by Dr. Kohei Miyazono, University of Tokyo, Japan (Fujii et al., Mol. Biol. Cell 10:3801-3813, 1999)), using Fugene6 (Roche). […] Cell extracts were harvested, and relative promoter activity quantitated by the ratio of firefly to Renilla luciferase activity using the dual luciferase assay kit (Promega). […] Hepcidin promoter activity was measured by luciferase assay as above.

## c1cc(-c2cnn3cc(-c4ccc(OCCN5CCCCC5)cc4)cnc23)ccn1 [Compound C/Dorsomorphin]
[1]
  effect on iron-mediated increase in hepatic SMAD1/5/8 phosphorylation: abolished; also recorded: did not exhibit an increase
[2]
  effect on Activin A-mediated activation of SMAD2: did not inhibit; also recorded: only modestly at concentrations ≧10 μM
caALK7
  effect on caALK7-mediated PAI-1 promoter activity (CAGA-Luc): did not inhibit; also recorded: not decreased
[3]
  tolerability: without obvious toxicity
caALK3; 10 μM, immunoblot
  effect on caALK3-induced increase in phospho-SMAD1/5/8: inhibited
caALK3; 0.25-10 μM
  effect on caALK3-mediated Id1 promoter activity (BRE-Luc): inhibited; also recorded: decreased

Reference: patent US20100093760A1, “METHODS FOR IDENTIFYING COMPOUNDS THAT MODULATE CELL SIGNALING AND METHODS EMPLOYING SUCH COMPOUNDS” (The General Hospital Corporation, priority 2006, published 2010)
